Experimental data as given in ChEMBL document CHEMBL5335778, “Bench-to-bedside: Innovation of small molecule anti-SARS-CoV-2 drugs in China” (Eur J Med Chem, 2023).

Key:
[1] = Cytotoxicity against human MT4 cells assessed as reduction in cell viability treated for 5 days by MTT assay; assay type: toxicity, cell-based; details: time 5 day
[2] = system: Human immunodeficiency virus 1; test: Antiviral activity against HIV-1 3B infected in human MT4 cells assessed as reduction in virus-induced cytopathic effect incubated for 5 days by MTT assay; assay type: functional, organism-based; details: Human immunodeficiency virus 1, 3B, MT4, 120 h
[3] = Oral bioavailability in rat; assay type: ADME, organism-based; details: in vivo
SARS-CoV-2 [4] = test: Antiviral activity against SARS-CoV-2 Omicron assessed as reduction of viral growth; assay type: functional, organism-based; details: Severe acute respiratory syndrome coronavirus 2, Omicron
[5] = target: Human immunodeficiency virus type 1 protease (Human immunodeficiency virus 1, UniProt Q72874); test: Inhibition of HIV-1 protease
Hepatitis C virus = test: Antiviral activity against HCV infected in human Huh-7.5.1 cells assessed as reduction in viral infection incubated for 48 hrs by MTS assay; assay type: functional, organism-based, Hepacivirus hominis; details: Huh-7.5.1, 48 h
SARS-CoV-2 [6] = test: Antiviral activity against SARS-CoV-2 infected in human A549-ACE2 cells; assay type: functional, organism-based; details: Severe acute respiratory syndrome coronavirus 2, A549-ACE2
SARS-CoV-2 [7] = test: Antiviral activity against SARS-CoV-2 B.1 infected in Green monkey VeroE6/TMPRSS2 cells assessed as inhibition of viral replication incubated for 2 days by qRT-PCR analysis; assay type: functional, organism-based; details: Severe acute respiratory syndrome coronavirus 2, B.1, VeroE6/TMPRSS2, 48 h
SARS-CoV-2 [8] = test: Antiviral activity against SARS-CoV-2 in human A549-ACE2 cells assessed as reduction in viral growth; assay type: functional, organism-based; details: Severe acute respiratory syndrome coronavirus 2, A549-ACE2
SARS-CoV-2 [9] = test: Antiviral activity against SARS-Co-V-2 infected in Vero E6 cells assessed as reduction in viral replication; assay type: functional, organism-based; details: Severe acute respiratory syndrome coronavirus 2, Vero C1008
[10] = Inhibition of DENV RNA-dependent RNA polymerase activity; parameters: species or system Dengue virus
[11] = Oral bioavailability in Beagle dog at 3 mg/kg; assay type: ADME, organism-based, Canis lupus familiaris; details: in vivo
SARS-CoV-2 [12] = test: Antiviral activity against SARS-COV-2 infected in African green monkey Vero E6 cells assessed as reduction in viral growth; assay type: functional, organism-based; details: Severe acute respiratory syndrome coronavirus 2, Vero C1008
[13] = Cytotoxicity against African green monkey Vero E6 cells assessed as cell growth inhibition measured after 48 hrs by CCK-8 assay; assay type: toxicity, cell-based, Vero C1008; details: chlorocebus sabaeus
[14] = Oral bioavailability in rat at 2 mg/kg by LC-MS/MS analysis; assay type: ADME, organism-based; details: in vivo
SARS-CoV-2 [15] = test: Antiviral activity against SARS-CoV-2 infected in African green monkey Vero E6 cells assessed as reduction in infection measured after 24 hrs by Plaque assay; assay type: functional, organism-based; details: Severe acute respiratory syndrome coronavirus 2, Vero C1008, 24 h
[16] = Plasma protein binding in rat assessed as free fraction by equilibrium dialysis analysis; assay type: ADME, cell-free
[17] = Oral bioavailability in Sprague-Dawley rat at 3 mg/kg by HPLC analysis; assay type: ADME, organism-based; details: in vivo
[18] = Oral bioavailability in monkey at 3 mg/kg, HPLC analysis; assay type: ADME, organism-based, Macaca mulatta; details: rhesus monkey, in vivo
[19] = Oral bioavailability in human at 2 mg; assay type: ADME, organism-based; details: in vivo
[20] = Selectivity index, ratio of CC50 for African green monkey Vero cells to EC50 for SARS-COV-2; assay type: cell-based; details: read-out: Ratio CC50/EC50
SARS-CoV-2 [21] = test: Antiviral activity against SARS-CoV-2 infected in African green monkey Vero E6 cells assessed as reduction in cell growth; assay type: functional, organism-based; details: Severe acute respiratory syndrome coronavirus 2, Vero C1008
SARS-CoV-2 [22] = test: Antiviral activity against luciferase-expressing pseudovirus encoding SARS-CoV-2 Omicron expressing S protein infected in human 293T/ACE2 cells assessed as reduction of viral growth measured after 48 hrs by luciferase assay; assay type: functional, organism-based; details: Severe acute respiratory syndrome coronavirus 2, 293T/ACE2, 48 h
SARS-CoV-2 [23] = test: Antiviral activity against SARS-CoV-2 infected in human A549-ACE2 cells assessed as reduction in viral replication; assay type: functional, organism-based; details: Severe acute respiratory syndrome coronavirus 2, A549-ACE2
[24] = system: Respiratory syncytial virus; test: Antiviral activity against Respiratory syncytial virus; assay type: functional, organism-based; details: human respiratory syncytial virus
[25] = Inhibition of HIV-1 […]; parameters: species or system Human immunodeficiency virus 1
Replicase polyprotein 1a = Replicase polyprotein 1a (Severe acute respiratory syndrome-related coronavirus, UniProt P0C6U8); test: Inhibition of SARS-CoV 3CLpro
SARS-CoV-2 [26] = test: Antiviral activity against SARS-CoV-2 infected in Vero E6 cells assessed as reduction in viral replication; assay type: functional, organism-based; details: Severe acute respiratory syndrome coronavirus 2, Vero C1008
[27] = target: Replicase polyprotein 1ab (Severe acute respiratory syndrome coronavirus 2, UniProt P0DTD1); test: Inhibition of N-terminal His6-tagged recombinant full length SARS-CoV-2 3CLpro expressed in Escherichia coli BL21(DE3) using MCA-AVLQSGFR-Lys(Dnp)-Lys-NH2 as fluorogenic substrate preincubated with compound for 10 mins followed by substrate addition by FRET assay

SMILES: [2H]c1cc([C@]2(C#N)O[C@H](CO)[C@@H](O)[C@H]2O)n2ncnc(N)c12
- CC50 at 120 h [1]: > 500000 nM
- EC50 [2]: 390 nM
- bioavailability [3]: 21.7%

SMILES: O=C1C=C(Nc2ccccc2C2CCNCC2)C2=NS(=O)(=O)c3cccc1c32
- EC50 (SARS-CoV-2 [4]): 33 nM

SMILES: [N-]=[N+]=N[C@]1(CO)O[C@@H](n2ccc(N)nc2=O)[C@H](O)[C@@H]1O [4'-AZIDOCYTIDINE]
- IC50 [5]: 1280 nM

SMILES: COc1ccc2cc1Oc1ccc(cc1)C[C@H]1c3c(cc4c(c3Oc3cc5c(cc3OC)CCN(C)[C@@H]5C2)OCO4)CCN1C [CEPHARANTHINE]
- IC50 (Hepatitis C virus): 60 nM
- IC50 (SARS-CoV-2 [6]): 240 nM
- IC50 (SARS-CoV-2 [7]): 1900 nM
- IC50 (SARS-CoV-2 [8]): 240 nM
- EC50 (SARS-CoV-2 [9]): 980 nM

SMILES: Br.[2H]c1cc([C@]2(C#N)O[C@H](COC(=O)C(C)C)[C@@H](OC(=O)C(C)C)[C@H]2OC(=O)C(C)C)n2ncnc(N)c12 [DEUREMIDEVIR HYDROBROMIDE]
- EC50 [10]: 240 nM
- EC50 [2]: 240 nM
- bioavailability [3]: 80%
- bioavailability [11]: 80%

SMILES: CC[C@H](C)[C@@H](C(=O)O[C@@H](CC(C)C)C(=O)N[C@@H](CC(C)C)C(=O)N[C@@H](C)/C=C/C(=O)N1C(=O)C=C(OC)[C@@H]1C)N(C)C [GALLINAMIDE A]
- EC50 (SARS-CoV-2 [12]): 28 nM
- CC50 at 48 h [13]: 88 nM

SMILES: N#C[C@@]1(c2ccc3c(N)ncnn23)O[C@H](CO)[C@@H](O)[C@H]1O [GS-441524]
- CC50 at 120 h [1]: > 500000 nM
- EC50 [2]: 590 nM
- bioavailability [14]: 50%
- EC50 (SARS-CoV-2 [15]): 390 nM
- fraction unbound [16]: 0.62
- bioavailability [17]: 16%
- bioavailability [18]: < 8%
- bioavailability [19]: 13%
- selectivity ratio [20]: > 1280

SMILES: CC[C@H](C)[C@H]1NC(=O)[C@@H](NC(=O)[C@@H](CC(C)C)N(C)C(=O)[C@@H]2CCCN2C(=O)C(C)=O)[C@@H](C)OC(=O)[C@H](Cc2ccc(OC)cc2)N(C)C(=O)[C@@H]2CCCN2C(=O)[C@H](CC(C)C)NC(=O)[C@@H](C)C(=O)[C@H](C(C)C)OC(=O)C[C@@H]1O [PLITIDEPSIN]
- EC50 (SARS-CoV-2 [21]): 0.7 nM
- EC50 (SARS-CoV-2 [22]): 350 nM
- EC50 (SARS-CoV-2 [23]): 100 nM

SMILES: N#C[C@@]1(c2ccc3c(N)ncnn23)O[C@H](COP(=O)(O)OP(=O)(O)OP(=O)(O)O)[C@@H](O)[C@H]1O [RDV-TP]
- EC50 [24]: 13 nM

SMILES: [N-]=[N+]=N[C@]1(CO)O[C@@H](n2ccc(N)nc2=O)[C@@H](F)[C@@H]1O [RO-0622]
- EC50 [25]: 1200 nM

SMILES: O=C(OC[C@H]1O[C@@H](OC(=O)c2cc(O)c(O)c(OC(=O)c3cc(O)c(O)c(O)c3)c2)[C@H](OC(=O)c2cc(O)c(O)c(OC(=O)c3cc(O)c(O)c(O)c3)c2)[C@@H](OC(=O)c2cc(O)c(O)c(OC(=O)c3cc(O)c(O)c(O)c3)c2)[C@@H]1OC(=O)c1cc(O)c(O)c(OC(=O)c2cc(O)c(O)c(O)c2)c1)c1cc(O)c(O)c(OC(=O)c2cc(O)c(O)c(O)c2)c1 [TANNIC ACID]
- EC50 (Replicase polyprotein 1a): 8310 nM
- EC50 (SARS-CoV-2 [26]): 12900 nM
- EC50 [27]: 585 nM

SMILES: N#Cc1cn([C@@H]2O[C@H](CO)[C@@H](O)[C@H]2O)c2ncnc(N)c12 [TOYOCAMYCIN]
- EC50 (SARS-CoV-2 [15]): 590 nM

SMILES: Nc1ncnc2c1ccn2[C@@H]1O[C@H](CO)[C@@H](O)[C@H]1O [TUBERCIDIN]
- EC50 (SARS-CoV-2 [15]): 590 nM
